Assays:
HUVEC [1] = type: cell-based
Description: To determine the effect of spheroid culture on cell viability, spheroids and fibronectin-adherent HUVEC were recovered between 6 and 72 hours after plating, serially diluted and further cultured for an additional 48 hours before relative cell number was determined. A shift-to-the left or a flattening of the dilution curve indicates decreased viability.
To test whether integrins modulate TNF-induced apoptosis, we cultured HUVEC on fibronectin (integrin-dependent adhesion) or as spheroids (integrin-independent adhesion) in the absence or presence of TNF (200 ng/ml) and of IFNγ (330 ng/ml), an enhancer of TNF cytotoxicity (Dealtry et al., Eur. J. Immunol. 17, 689-693 (1987)). […] To examine the effect of TNF±IFNγ on cell survival we determined the viability of untreated and treated cultures. […]
For survival, HUVEC spheroids plated at 1×10^6 cells/ml in 1% BSA-coated 24 mm wells, or adherent cells plated at 4×10^5 cells in 3 μg/ml fibronectin-coated 35 mm wells of non-tissue culture plates (Evergreen Scientific), were stimulated with TNFα (200 ng/ml=10^4 U/ml)±IFNγ (330 ng/ml=10^4 U/ml). […] Relative cell number was assessed 48 hours later by measuring MTT conversion during the last 4 hours of culture. […]

HUVEC [2] = experiment: Detection of apoptotic HUVEC in culture (YoPro-1 staining); type: cell-based, human; conditions: peptide 300 μM; TNF 200 ng/ml; IFNγ 330 ng/ml
Description: To test whether integrins modulate TNF-induced apoptosis, we cultured HUVEC on fibronectin (integrin-dependent adhesion) or as spheroids (integrin-independent adhesion) in the absence or presence of TNF (200 ng/ml) and of IFNγ (330 ng/ml), an enhancer of TNF cytotoxicity (Dealtry et al., Eur. J. Immunol. 17, 689-693 (1987)). […] In contrast, spheroids treated with TNF±IFNγ increased uptake of YoPro-1 (an increase suppressed by caspase inhibitors BOC, Z-VAD, IETD and DVED), DNA fragmentation, caspase-3 activation and cleavage of PARP (FIG. 2a, 2b and data not shown). To examine the effect of TNF±IFNγ on cell survival we determined the viability of untreated and treated cultures. […] Treatment with IFNγ alone was not cytotoxic (data not shown). HUVEC adhere to immobilized fibronectin via αVβ3 and α5β1 integrins (Rüegg et al., Nature Med. 4, 408-414 (1998)). To test for the individual contribution of these integrins to cell survival on fibronectin, we cultured HUVEC on plastic-immobilized mAbs (imAbs) directed against αVβ3, α1, α5 and α4 integrins.
For morphological evaluation, spheroids were embedded in Epon (Fluka Chemie) and thick sections were stained with 1% Methylene/Azur blue. For immunostaining, frozen spheroid sections were fixed in 4% (Fluka Chemis, Buchs, Switzerland) formaldehyde. After blocking with 1% BSA, sections were sequentially incubated for 1 hour with primary mAb (20 μg/ml) and a Cyan3-labeled GaM antiserum (West Grove, Pa., USA). For the TUNEL reaction, frozen spheroids sections were fixed in 4% paraformaledhyde and processed as described (Ruegg et al., I.e.). Spherouids were countsrstained with propidium iodide for total DNA content. […] The apoptosis index was determined by calculating the ratio between the green (TUNEL staining of fragmented DNA) and red (propidium iodide staining by total DNA) pixels. Number of analyzed spheroids per condition were: C, 31; T, 21; TI, 12. […] Cultures were viewed by inverted fluorescence microscopy (Leica DM IRB, Heerbrugg, Switzerland). […]

integrin αVβ3 = molecular target: T1, integrin αVβ3 (Homo sapiens, UniProt P05106+P06756); experiment: Cell detachment assay, HUVEC on gelatin; type: cell-based; conditions: graded peptide concentrations; 2 hours
T1 construct: EMD121974 disrupted αVβ3-mediated HUVEC adhesion on gelatin; endogenous in cells; host or cells: HUVEC (primary, passages 3 to 7)
Description: (§1) Maxisorp II ELISA plates were coated with 1 μg/well of fibrobnectin or 0.5% gelatin overnight at 4° C. in PBS. Coated wells were rinsed and blocked with 1% BSA for 2 hours at 37° C. and rinsed before use. 2×10^4 c/well in basal medium without FCS were added and briefly sedimented by centrifugation (40×g). Cells were let adhere for 2 hours at 37° C. before peptides were added at graded concentrations. After 2 hours, wells were rinsed with warm PBS, and attached cells were fixed in 2% paraformaldehyde, stained with 0.5% crystal violet (Sigma Chemie) and quantified by O.D. reading at 620 nm (Packard Spectra Count). Results are given as O.D. values and represent the mean of duplicate wells ±s.d. of specific adhesion (= adhesion on ECM protein minus adhesion on BSA).

α5β1 = molecular target: T2, α5β1 (Homo sapiens, UniProt P05556+P08648); experiment: Cell detachment assay, HUVEC on fibronectin; type: cell-based; conditions: graded peptide concentrations; 2 hours
T2 construct: HUVEC adhere to immobilized fibronectin via αVβ3 and α5β1 integrins; endogenous in cells; host or cells: HUVEC (primary, passages 3 to 7)
Description: as §1

[3] = test system: BN-175 syngeneic soft tissue sarcoma; experiment: Isolated limb perfusion (ILP) of BN rats bearing BN-175 soft tissue sarcoma; type: in vivo; conditions: ILP 30 min; EMD121974 500 μg (plus 100 mg/kg i.p.); TNF 50 μg; 6 days after ILP
Description: FIG. 7. Decreased integrin ligation enhances TNF cytotoxicity in in vivo. BN rats bearing the BN-175 syngeneic soft tissue sarcoma were treated with EMD121974 (□), TNF (Δ) or EMD121974/TNF (▪) by ILP technique. (◯) sham-treated rats. Tumor growth was measured for 6 days after ILP. Results represent the mean tumor volume ±s.e.m. (n=6). Small fragments of the syngeneic soft tissue sarcoma BN-175 were implanted in the right hind limb of male BN rats, and treatment started when diameter reached 12-14 mm (Manusama et al., Oncol Rep. 6, 173-177. (1999)). The femoral artery and vein were canulated with silastic tubing and collaterals occluded with a tourniquet. The perfusion was performed for 30 min with 5 ml Heamaccel® (2.4 ml/min) in which the drugs were added as boluses (EMD121974, 500 μg, end concentration in perfusate 170 μM; TNF, 50 μg). The perfusate was oxygenated and the leg kept on 38-39° C. with a warm mattress. Rats perfused with EMD121974 also received systemic administration of the peptide 2 hours before and 3 hours after ILP (100 mg/kg i.p.). Tumor diameter was measured in two directions by caliper measurements and tumor volume (V) was calculated (V= 0.4)(A^2×B, where B represents the largest diameter and A the diameter perpendicular to B). 6 rats were treated per group. Local and systemic side effects were evaluated as described (Manusama et al., Oncol. Rep. 6, 173-177. (1999)). […]

BN175 tumor cells = experiment: Sensitivity of BN175 tumor cells in vitro; type: cell-based, rat; conditions: unpublished observation

T1 sequence (P06756 31-889 limits assumed): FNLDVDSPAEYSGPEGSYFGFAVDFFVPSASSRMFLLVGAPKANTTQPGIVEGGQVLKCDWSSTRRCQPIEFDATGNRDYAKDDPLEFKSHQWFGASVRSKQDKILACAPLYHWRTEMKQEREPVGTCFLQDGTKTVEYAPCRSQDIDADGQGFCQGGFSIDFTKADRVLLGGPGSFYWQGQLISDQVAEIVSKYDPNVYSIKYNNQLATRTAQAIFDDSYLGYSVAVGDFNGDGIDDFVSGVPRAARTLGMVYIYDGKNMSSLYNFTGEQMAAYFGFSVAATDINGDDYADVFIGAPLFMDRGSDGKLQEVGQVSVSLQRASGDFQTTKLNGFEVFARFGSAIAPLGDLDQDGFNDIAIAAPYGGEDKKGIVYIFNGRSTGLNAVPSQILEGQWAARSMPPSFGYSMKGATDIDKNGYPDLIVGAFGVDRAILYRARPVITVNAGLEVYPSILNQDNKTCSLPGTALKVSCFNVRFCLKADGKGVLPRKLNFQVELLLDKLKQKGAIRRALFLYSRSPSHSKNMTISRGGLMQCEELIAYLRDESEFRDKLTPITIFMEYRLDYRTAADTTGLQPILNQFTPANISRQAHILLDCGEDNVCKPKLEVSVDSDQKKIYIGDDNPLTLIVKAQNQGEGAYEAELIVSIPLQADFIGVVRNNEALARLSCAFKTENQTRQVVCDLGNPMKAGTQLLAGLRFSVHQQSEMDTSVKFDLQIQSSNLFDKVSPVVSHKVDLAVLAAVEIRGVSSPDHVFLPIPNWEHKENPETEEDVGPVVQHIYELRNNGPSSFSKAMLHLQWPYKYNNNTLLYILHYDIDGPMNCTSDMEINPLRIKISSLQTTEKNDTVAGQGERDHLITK
T1 sequence (P06756 891-1048 partner limits assumed): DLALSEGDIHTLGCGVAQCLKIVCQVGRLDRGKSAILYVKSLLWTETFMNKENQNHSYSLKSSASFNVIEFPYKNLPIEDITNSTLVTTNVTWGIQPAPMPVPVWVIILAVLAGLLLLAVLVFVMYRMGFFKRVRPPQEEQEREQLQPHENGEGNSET
T1 sequence (P05106 27-788): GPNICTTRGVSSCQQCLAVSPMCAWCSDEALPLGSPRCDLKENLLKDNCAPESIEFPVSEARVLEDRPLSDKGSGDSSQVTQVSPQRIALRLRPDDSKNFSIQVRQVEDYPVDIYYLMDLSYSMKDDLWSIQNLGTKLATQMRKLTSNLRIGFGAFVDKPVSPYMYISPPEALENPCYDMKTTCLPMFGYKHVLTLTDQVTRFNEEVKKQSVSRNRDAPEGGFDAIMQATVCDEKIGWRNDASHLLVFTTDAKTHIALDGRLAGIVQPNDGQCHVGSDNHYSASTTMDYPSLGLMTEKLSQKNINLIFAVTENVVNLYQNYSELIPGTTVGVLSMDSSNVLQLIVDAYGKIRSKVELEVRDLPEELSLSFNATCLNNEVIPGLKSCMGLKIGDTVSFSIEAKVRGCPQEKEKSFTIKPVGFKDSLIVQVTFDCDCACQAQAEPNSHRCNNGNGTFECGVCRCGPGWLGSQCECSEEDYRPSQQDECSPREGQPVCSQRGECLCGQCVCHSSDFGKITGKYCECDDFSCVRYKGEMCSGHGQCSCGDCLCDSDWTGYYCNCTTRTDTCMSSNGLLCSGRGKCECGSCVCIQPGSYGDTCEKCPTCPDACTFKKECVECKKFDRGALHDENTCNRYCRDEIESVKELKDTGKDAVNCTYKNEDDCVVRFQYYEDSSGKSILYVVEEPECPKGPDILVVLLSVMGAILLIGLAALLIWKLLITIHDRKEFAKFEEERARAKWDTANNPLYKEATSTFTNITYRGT
T2 sequence (P08648 42-894 limits assumed): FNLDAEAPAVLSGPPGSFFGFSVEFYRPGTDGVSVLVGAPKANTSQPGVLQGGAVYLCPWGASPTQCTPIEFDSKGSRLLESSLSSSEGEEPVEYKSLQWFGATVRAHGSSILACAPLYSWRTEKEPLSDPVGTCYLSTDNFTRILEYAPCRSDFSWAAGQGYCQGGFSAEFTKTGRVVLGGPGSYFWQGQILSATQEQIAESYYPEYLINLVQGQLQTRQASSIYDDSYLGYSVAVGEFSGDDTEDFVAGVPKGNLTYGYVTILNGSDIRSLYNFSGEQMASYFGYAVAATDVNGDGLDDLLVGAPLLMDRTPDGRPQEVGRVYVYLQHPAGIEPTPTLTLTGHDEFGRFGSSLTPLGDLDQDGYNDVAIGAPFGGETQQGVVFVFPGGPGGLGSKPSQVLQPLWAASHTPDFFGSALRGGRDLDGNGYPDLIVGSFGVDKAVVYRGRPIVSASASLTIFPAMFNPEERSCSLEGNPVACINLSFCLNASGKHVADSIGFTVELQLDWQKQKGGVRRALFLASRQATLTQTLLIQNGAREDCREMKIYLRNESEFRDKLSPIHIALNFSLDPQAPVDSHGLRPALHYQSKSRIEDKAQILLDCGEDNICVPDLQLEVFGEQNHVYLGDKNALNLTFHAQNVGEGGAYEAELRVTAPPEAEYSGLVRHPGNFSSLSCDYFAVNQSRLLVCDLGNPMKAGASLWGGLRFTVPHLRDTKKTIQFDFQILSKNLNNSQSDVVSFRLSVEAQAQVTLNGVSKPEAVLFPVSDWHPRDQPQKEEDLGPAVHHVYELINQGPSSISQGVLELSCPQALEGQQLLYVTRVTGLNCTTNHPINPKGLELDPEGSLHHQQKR
T2 sequence (P08648 895-1049 partner limits assumed): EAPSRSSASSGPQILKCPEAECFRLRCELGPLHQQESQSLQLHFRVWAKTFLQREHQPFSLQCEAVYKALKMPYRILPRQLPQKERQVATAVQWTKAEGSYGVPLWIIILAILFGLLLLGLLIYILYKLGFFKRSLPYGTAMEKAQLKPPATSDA
T2 sequence (P05556 21-798): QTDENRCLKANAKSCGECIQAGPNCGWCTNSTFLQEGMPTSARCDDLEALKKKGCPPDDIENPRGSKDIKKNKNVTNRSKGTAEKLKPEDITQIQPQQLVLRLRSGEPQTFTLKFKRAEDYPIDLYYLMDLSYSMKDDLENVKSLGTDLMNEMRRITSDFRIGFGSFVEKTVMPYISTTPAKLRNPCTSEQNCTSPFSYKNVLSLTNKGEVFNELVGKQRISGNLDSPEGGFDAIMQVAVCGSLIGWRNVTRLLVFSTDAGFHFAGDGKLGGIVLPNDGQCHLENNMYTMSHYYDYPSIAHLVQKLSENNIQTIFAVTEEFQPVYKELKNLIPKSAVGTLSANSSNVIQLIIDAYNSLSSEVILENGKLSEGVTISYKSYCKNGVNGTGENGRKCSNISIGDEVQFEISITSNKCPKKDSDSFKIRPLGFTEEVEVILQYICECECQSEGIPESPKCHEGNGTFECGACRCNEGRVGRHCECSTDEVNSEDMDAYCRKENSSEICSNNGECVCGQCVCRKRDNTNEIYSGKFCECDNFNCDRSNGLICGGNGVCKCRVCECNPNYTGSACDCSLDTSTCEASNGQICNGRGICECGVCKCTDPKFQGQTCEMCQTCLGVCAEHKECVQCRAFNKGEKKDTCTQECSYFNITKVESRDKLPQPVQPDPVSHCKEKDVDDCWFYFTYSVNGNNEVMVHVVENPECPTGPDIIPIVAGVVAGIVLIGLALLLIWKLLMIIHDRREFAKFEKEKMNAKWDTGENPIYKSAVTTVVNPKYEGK

With `CC(C)[C@H]1C(=O)N[C@@H](CCCN=C(N)N)C(=O)NCC(=O)N[C@@H](CC(=O)O)C(=O)N[C@H](Cc2ccccc2)C(=O)N1C` [EMD121974, cyclo-(Arg-Gly-Asp-DPhe-NMeVal)] the “cell viability / survival of fibronectin-adherent HUVEC, agent alone” value (HUVEC [1]; fibronectin-adherent, TNF 200 ng/ml ± IFNγ 330 ng/ml, EMD peptide 300 μM) was “neither TNF/IFNγ nor EMD121974 alone affected survival”, the “survival of HUVEC on fibronectin, combined exposure to TNF/IFNγ and peptide” value (HUVEC [1]; peptide 300 μM, TNF 200 ng/ml, IFNγ 330 ng/ml) was “reduced survival” and the “apoptosis and detachment of HUVEC on fibronectin, combined exposure to TNF/IFNγ and peptide” value (HUVEC [2]) was “increased apoptosis and detachment”. For the same molecule, the “αVβ3-mediated HUVEC adhesion on gelatin” value (integrin αVβ3) was “disrupted”, the “α5β1 component of the α5β1/αVβ3-mediated adhesion to fibronectin” value (α5β1) was “does not affect” and the tumor growth [3] was “no impact on tumor growth”. For the same molecule, the “sensitivity of BN175 tumor cells to αVβ3 selective inhibitors” value (BN175 tumor cells) was “low sensitivity”.
